Assay results taken from ChEMBL document CHEMBL1781971, “Discovery of 5-(arenethynyl) hetero-monocyclic derivatives as potent inhibitors of BCR-ABL including the T315I gatekeeper mutant” (Bioorg Med Chem Lett, 2011).
pIC50: −log10 of the molar value.

Assays:
[1] = target: Tyrosine-protein kinase ABL1 (Homo sapiens, UniProt P00519)
[2] = target: Tyrosine-protein kinase ABL1 (Homo sapiens, UniProt P00519, T315I)
[3] = cells; details: Mus musculus, BaF3
Description: Antiproliferative activity against mouse BA/F3 cells expressing wild type BCR-ABL

[4] = cells; details: Mus musculus, BaF3; remark: listed apart in the source
[5] = cells; details: Mus musculus, BaF3; remark: listed apart in the source
Description: Antiproliferative activity against BCR-ABL-negative parental mouse BA/F3 cells

[6] = Half life in rat at 15 mg/kg, po; type: ADME, organism-based; set-up: dose 15 mg/kg, route oral; details: in vivo
[7] = tested on: Rattus norvegicus; test: AUC in rat at 15 mg/kg, po; type: ADME, organism-based, Plasma; set-up: dose 15 mg/kg, route oral; details: in vivo
[8] = Oral bioavailability in rat at 15 mg/kg; type: ADME, organism-based; details: in vivo
[9] = Plasma concentration in mouse after 6 hrs at 30 mg/kg, po; type: ADME, organism-based; set-up: dose 30 mg/kg, route oral
[10] = Cmax in rat at 5 mg/kg, iv; type: ADME, organism-based; set-up: dose 5 mg/kg, route intravenous; details: in vivo
[11] = Half life in rat at 5 mg/kg, iv; type: ADME, organism-based; set-up: dose 5 mg/kg, route intravenous; details: in vivo
[12] = tested on: Rattus norvegicus; test: AUC in rat at 5 mg/kg, iv; type: ADME, organism-based, Plasma; set-up: dose 5 mg/kg, route intravenous; details: in vivo
[13] = Volume of distribution in rat at 5 mg/kg, iv; type: ADME, organism-based; set-up: dose 5 mg/kg, route intravenous; details: in vivo
[14] = Clearance in rat at 5 mg/kg, iv; type: ADME, organism-based; set-up: dose 5 mg/kg, route intravenous; details: in vivo
[15] = Cmax in rat at 15 mg/kg, po; type: ADME, organism-based; set-up: dose 15 mg/kg, route oral; details: in vivo
[16] = target: Insulin receptor (Homo sapiens, UniProt P06213); test: Inhibition of human IR using poly[Glu:Tyr] by Hotspot assay
[17] = target: Tyrosine-protein kinase JAK1 (Homo sapiens, UniProt P23458); test: Inhibition of human JAK1 using poly[Glu:Tyr] by Hotspot assay
[18] = target: Tyrosine-protein kinase JAK2 (Homo sapiens, UniProt O60674); test: Inhibition of human JAK2 using poly[Glu:Tyr] by Hotspot assay
[19] = target: Tyrosine-protein kinase JAK3 (Homo sapiens, UniProt P52333); test: Inhibition of human JAK3 using GEEEEYFELVKKKK peptide substrate by Hotspot assay
[20] = target: Receptor-type tyrosine-protein kinase FLT3 (Homo sapiens, UniProt P36888)
[21] = target: Tyrosine-protein kinase Lyn (Homo sapiens, UniProt P07948); test: Inhibition of human LYN using poly[Glu:Tyr] by Hotspot assay
[22] = target: Platelet-derived growth factor receptor alpha (Homo sapiens, UniProt P16234); test: Inhibition of human PDGFRalpha using poly[Glu:Tyr] by Hotspot assay
Platelet-derived growth factor receptor alpha, sequence (P16234 whole entry): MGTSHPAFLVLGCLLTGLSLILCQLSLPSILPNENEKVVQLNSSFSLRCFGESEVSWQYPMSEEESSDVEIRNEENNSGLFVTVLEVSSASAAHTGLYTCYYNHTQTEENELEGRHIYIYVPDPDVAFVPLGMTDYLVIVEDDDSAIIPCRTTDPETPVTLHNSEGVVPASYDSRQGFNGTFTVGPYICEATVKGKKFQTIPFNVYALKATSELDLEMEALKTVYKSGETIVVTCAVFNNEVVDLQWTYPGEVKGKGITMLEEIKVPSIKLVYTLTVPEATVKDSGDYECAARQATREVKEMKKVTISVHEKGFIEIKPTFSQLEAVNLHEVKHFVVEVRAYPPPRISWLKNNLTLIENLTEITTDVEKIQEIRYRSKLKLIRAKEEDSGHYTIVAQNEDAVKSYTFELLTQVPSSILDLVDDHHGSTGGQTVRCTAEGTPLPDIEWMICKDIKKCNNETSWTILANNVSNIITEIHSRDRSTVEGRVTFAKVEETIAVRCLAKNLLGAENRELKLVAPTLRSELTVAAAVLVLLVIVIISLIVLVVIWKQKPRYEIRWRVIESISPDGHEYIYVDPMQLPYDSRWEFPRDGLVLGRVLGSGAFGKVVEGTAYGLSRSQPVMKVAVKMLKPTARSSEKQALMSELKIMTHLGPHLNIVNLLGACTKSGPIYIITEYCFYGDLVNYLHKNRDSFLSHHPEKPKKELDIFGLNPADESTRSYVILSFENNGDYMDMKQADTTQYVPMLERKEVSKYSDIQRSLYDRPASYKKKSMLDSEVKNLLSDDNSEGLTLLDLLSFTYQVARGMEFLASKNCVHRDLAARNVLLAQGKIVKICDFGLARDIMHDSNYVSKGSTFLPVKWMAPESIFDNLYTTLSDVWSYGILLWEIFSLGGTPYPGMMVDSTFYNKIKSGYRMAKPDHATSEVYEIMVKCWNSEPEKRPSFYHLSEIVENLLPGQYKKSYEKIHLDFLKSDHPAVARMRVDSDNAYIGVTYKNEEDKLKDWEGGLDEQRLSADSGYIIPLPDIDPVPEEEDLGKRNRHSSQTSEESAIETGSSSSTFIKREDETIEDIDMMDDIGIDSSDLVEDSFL

[23] = target: Angiopoietin-1 receptor (Homo sapiens, UniProt Q02763); test: Inhibition of human Tie2/TEK using poly[Glu:Tyr] by Hotspot assay
[24] = target: Proto-oncogene tyrosine-protein kinase Src (Homo sapiens, UniProt P12931); test: Inhibition of human Src using poly[Glu:Tyr] by Hotspot assay
[25] = Antitumor activity against mouse BA/F3 cells expressing ABL T315I mutant xenografted in mouse assessed as increase in overall survival at 30 mg/kg, po QD for 19 days relative to control; type: functional, BaF3
[26] = target: Serine/threonine-protein kinase B-raf (Homo sapiens, UniProt P15056); test: Inhibition of human BRAF using MEK1 (K97R), ATP substrate by Hotspot assay
[27] = target: Serine/threonine-protein kinase B-raf (Homo sapiens, UniProt P15056, V600E); test: Inhibition of human BRAF V599E mutant using MEK1 (K97R), ATP substrate by Hotspot assay
[28] = target: Aurora kinase A (Homo sapiens, UniProt O14965); test: Inhibition of human Aurora A using H-LRRASLG peptide substrate by Hotspot assay
Aurora kinase A, sequence (O14965 whole entry): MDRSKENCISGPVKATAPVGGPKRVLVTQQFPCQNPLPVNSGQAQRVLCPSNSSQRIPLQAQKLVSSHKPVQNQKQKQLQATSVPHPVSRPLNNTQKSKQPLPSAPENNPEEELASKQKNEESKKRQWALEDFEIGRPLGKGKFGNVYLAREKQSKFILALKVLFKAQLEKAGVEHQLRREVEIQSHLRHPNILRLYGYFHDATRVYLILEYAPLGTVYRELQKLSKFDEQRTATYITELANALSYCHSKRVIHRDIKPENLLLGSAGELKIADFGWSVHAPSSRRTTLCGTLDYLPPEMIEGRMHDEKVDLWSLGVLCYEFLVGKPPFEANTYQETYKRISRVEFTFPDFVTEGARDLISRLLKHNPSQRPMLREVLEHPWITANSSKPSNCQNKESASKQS

[29] = target: Cyclin-dependent kinase 2/cyclin E1 (Homo sapiens, UniProt P24941); test: Inhibition of human CDK2/Cyclin E using Histone H1 substrate by Hotspot assay; type: protein-complex assay
[30] = target: Mast/stem cell growth factor receptor Kit (Homo sapiens, UniProt P10721); test: Inhibition of human c-Kit using poly[Glu:Tyr] by Hotspot assay
[31] = target: Hepatocyte growth factor receptor (Homo sapiens, UniProt P08581); test: Inhibition of human c-Met using KKKSPGEYVNIEFG peptide substrate by Hotspot assay
[32] = target: Ephrin type-A receptor 2 (Homo sapiens, UniProt P29317); test: Inhibition of human EPHA2 using poly[Glu:Tyr] peptide substrate by Hotspot assay
Ephrin type-A receptor 2, sequence (P29317 whole entry): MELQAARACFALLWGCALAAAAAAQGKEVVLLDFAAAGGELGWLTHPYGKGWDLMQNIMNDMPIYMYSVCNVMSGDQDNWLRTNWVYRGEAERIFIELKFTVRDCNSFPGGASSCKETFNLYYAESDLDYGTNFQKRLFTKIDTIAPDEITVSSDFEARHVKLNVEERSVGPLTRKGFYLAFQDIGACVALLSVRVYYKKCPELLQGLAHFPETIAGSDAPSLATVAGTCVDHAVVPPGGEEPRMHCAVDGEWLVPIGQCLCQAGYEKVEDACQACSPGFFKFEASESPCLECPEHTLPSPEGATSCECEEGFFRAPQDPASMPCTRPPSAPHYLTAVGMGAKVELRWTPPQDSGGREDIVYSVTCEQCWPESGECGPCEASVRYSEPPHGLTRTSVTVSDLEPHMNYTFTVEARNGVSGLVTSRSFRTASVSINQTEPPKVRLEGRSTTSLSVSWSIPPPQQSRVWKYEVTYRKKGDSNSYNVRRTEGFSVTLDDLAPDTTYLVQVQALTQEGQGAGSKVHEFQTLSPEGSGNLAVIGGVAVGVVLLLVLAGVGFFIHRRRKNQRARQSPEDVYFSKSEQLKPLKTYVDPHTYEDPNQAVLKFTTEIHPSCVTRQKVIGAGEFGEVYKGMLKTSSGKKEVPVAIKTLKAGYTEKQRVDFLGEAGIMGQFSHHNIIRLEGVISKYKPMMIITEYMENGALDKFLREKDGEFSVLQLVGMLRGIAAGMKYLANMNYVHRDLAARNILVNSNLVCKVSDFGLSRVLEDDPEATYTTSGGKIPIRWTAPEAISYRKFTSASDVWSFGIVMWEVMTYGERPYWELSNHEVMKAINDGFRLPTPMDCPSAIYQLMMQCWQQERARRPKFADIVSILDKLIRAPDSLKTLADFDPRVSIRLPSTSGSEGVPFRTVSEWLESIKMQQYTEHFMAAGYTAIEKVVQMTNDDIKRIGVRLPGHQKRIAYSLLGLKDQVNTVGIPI

[33] = target: Ephrin type-A receptor 3 (Homo sapiens, UniProt P29320); test: Inhibition of human EPHA3 using poly[Glu:Tyr] peptide substrate by Hotspot assay
Ephrin type-A receptor 3, sequence (P29320 whole entry): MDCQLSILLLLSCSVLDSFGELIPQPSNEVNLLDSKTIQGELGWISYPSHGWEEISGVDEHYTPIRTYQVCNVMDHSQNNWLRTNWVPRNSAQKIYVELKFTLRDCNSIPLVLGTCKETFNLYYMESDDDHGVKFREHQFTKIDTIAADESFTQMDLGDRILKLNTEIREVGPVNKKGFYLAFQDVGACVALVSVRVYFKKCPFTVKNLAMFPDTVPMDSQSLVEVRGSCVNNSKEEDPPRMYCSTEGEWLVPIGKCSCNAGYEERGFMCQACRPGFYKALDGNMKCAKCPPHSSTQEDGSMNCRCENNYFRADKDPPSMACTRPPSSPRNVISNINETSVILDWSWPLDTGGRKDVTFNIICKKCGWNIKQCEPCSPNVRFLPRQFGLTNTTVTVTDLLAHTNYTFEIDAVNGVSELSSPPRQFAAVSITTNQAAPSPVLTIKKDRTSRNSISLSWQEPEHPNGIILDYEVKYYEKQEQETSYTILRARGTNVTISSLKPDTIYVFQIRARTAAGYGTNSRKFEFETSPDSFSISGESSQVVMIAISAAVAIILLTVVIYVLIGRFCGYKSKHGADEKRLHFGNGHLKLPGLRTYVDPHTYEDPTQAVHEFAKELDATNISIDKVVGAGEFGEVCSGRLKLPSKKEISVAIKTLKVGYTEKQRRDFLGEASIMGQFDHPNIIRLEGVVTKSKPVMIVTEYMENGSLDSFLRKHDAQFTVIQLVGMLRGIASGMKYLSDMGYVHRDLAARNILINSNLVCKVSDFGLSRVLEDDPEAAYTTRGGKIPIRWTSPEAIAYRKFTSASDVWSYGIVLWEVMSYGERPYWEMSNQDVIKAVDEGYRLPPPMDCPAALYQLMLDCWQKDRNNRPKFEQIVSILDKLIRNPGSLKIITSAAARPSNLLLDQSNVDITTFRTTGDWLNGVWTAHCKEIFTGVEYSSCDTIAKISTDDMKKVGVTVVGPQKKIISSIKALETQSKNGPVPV

[34] = target: Ephrin type-A receptor 7 (Homo sapiens, UniProt Q15375); test: Inhibition of human EPHA7 using poly[Glu:Tyr] peptide substrate by Hotspot assay
[35] = target: Fibroblast growth factor receptor 1 (Homo sapiens, UniProt P11362); test: Inhibition of human FGFR1 using KKKSPGEYVNIEFG peptide substrate by Hotspot assay
Fibroblast growth factor receptor 1, sequence (P11362 whole entry): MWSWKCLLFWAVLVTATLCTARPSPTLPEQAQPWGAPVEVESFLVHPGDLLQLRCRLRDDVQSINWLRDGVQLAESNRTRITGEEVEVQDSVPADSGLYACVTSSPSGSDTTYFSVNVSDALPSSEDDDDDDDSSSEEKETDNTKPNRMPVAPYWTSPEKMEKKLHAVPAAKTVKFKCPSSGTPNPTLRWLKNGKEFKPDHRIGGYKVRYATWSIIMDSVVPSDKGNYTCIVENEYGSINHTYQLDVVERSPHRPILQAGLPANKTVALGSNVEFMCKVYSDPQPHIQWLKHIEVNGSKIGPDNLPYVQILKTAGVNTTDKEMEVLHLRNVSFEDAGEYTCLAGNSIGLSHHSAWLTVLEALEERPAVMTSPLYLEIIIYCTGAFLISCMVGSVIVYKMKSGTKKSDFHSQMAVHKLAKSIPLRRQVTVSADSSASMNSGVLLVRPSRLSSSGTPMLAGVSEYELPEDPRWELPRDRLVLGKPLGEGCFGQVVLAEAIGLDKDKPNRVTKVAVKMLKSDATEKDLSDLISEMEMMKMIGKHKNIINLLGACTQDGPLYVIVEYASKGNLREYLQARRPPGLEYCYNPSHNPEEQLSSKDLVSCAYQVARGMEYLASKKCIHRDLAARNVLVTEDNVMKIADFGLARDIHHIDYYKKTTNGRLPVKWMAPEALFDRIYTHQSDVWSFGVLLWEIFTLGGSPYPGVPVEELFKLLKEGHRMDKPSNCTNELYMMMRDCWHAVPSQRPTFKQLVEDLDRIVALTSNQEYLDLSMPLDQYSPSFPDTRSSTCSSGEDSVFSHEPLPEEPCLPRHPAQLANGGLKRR

[36] = target: Fibroblast growth factor receptor 2 (Homo sapiens, UniProt P21802); test: Inhibition of human FGFR2 using poly[Glu:Tyr] peptide substrate by Hotspot assay
[37] = target: Fibroblast growth factor receptor 3 (Homo sapiens, UniProt P22607); test: Inhibition of human FGFR3 using poly[Glu:Tyr] peptide substrate by Hotspot assay
Fibroblast growth factor receptor 3, sequence (P22607 whole entry): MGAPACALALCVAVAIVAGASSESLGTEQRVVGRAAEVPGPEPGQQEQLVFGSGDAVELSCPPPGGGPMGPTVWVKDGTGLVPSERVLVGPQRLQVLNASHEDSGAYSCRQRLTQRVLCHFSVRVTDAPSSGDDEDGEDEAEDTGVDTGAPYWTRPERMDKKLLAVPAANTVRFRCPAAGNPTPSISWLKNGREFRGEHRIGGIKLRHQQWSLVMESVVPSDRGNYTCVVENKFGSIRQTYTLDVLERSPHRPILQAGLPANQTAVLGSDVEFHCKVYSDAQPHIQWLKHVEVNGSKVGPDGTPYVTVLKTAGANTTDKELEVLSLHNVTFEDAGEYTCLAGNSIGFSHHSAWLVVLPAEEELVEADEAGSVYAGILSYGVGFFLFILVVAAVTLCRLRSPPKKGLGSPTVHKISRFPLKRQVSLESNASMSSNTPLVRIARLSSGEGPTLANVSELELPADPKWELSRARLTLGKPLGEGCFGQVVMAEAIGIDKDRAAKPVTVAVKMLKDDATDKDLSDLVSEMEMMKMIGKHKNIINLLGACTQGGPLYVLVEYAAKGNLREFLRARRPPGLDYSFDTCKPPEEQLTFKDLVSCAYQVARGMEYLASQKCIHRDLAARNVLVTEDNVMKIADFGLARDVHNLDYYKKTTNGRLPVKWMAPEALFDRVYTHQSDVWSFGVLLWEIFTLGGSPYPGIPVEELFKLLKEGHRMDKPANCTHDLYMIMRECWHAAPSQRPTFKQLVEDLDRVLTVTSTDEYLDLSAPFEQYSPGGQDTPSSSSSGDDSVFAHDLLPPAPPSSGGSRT

[38] = target: Fibroblast growth factor receptor 4 (Homo sapiens, UniProt P22455); test: Inhibition of human FGFR4 using poly[Glu:Tyr] peptide substrate by Hotspot assay
[39] = target: Vascular endothelial growth factor receptor 1 (Homo sapiens, UniProt P17948); test: Inhibition of human VEGFR1 using poly[Glu:Tyr] by Hotspot assay
[40] = target: Vascular endothelial growth factor receptor 2 (Homo sapiens, UniProt P35968); test: Inhibition of human VEGFR2 using poly[Glu:Tyr] by Hotspot assay
[41] = target: Macrophage colony-stimulating factor 1 receptor (Homo sapiens, UniProt P07333); test: Inhibition of human FMS using poly[Glu:Tyr] by Hotspot assay

## Cc1ccc(C(=O)Nc2ccc(CN3CCN(C)CC3)c(C(F)(F)F)c2)cc1C#Cc1cnc(C)n1C
[1]
  pIC50: 7.14
[2]
  pIC50: 6.44
[3]
  pIC50: 8.07
[4]
  pIC50: 7.16
[5]
  pIC50: 5.75

## Cc1ccc(C(=O)Nc2ccc(CN3CCN(C)CC3)c(C(F)(F)F)c2)cc1C#Cc1cnc(C(N)=O)n1C
[6]
  half-life: 8 h
[7]
  AUC: 4144 h/ng/mL
[8]
  bioavailability: 25.3%
[9]
  concentration at 6 h: 358 ng/mL
[10]
  Cmax: 627 ng/mL
[11]
  half-life: 7 h
[12]
  AUC: 5445 h/ng/mL
[13]
  Vd: 9.3 L/kg
[14]
  clearance: 15.3 mL/min/kg
[15]
  Cmax: 258 ng/mL
[1]
  pIC50: 8.44
[2]
  pIC50: 7.60
[3]
  pIC50: 8.89
[4]
  pIC50: 8.12
[5]
  pIC50: 6.10

## CNC(=O)c1ncc(C#Cc2cc(C(=O)Nc3ccc(CN4CCN(C)CC4)c(C(F)(F)F)c3)ccc2C)n1C
[1]
  pIC50: 7.76
[2]
  pIC50: 7.74
[3]
  pIC50: 8.77
[4]
  pIC50: 8.40
[5]
  pIC50: 5.80

## Cc1ccc(C(=O)Nc2ccc(CN3CCN(C)CC3)c(C(F)(F)F)c2)cc1C#Cc1cnc(C(=O)NCCO)n1C
[1]
  pIC50: 7.26
[2]
  pIC50: 6.52
[3]
  pIC50: 8.41
[4]
  pIC50: 7.19
[5]
  pIC50: 5.80

## CNC(=O)c1ncc(C#Cc2cc(C(=O)Nc3ccc(CN4CCN(CCO)CC4)c(C(F)(F)F)c3)ccc2C)n1C
[16]
  pIC50: < 5.52
[17]
  pIC50: 7.26
[18]
  pIC50: 6.27
[19]
  pIC50: 7.24
[20]
  pIC50: 8.70
[21]
  pIC50: > 9.82
[22]
  pIC50: 8.89
[23]
  pIC50: 8.66
[24]
  pIC50: 8.40
[6]
  half-life: 10 h
[7]
  AUC: 6586 h/ng/mL
[8]
  bioavailability: 45%
[9]
  concentration at 6 h: 1150 ng/mL
[25]
  Activity: 130%
[26]
  pIC50: 7.70
[27]
  pIC50: 7.59
[28]
  pIC50: < 5.52
[29]
  pIC50: 8.19
[30]
  pIC50: < 5.52
[31]
  pIC50: < 5.52
[32]
  pIC50: 9.22
[33]
  pIC50: 8.92
[34]
  pIC50: 8.38
[35]
  pIC50: 8.74
[36]
  pIC50: 8.82
[37]
  pIC50: 7.98
[38]
  pIC50: 7.47
[39]
  pIC50: 8.28
[40]
  pIC50: 8.64
[41]
  pIC50: 8.14
[10]
  Cmax: 200 ng/mL
[11]
  half-life: 5.6 h
[12]
  AUC: 970 h/ng/mL
[13]
  Vd: 8.2 L/kg
[14]
  clearance: 17.2 mL/min/kg
[15]
  Cmax: 344 ng/mL
[3]
  pIC50: 8.89
[4]
  pIC50: 8.08
[5]
  pIC50: 5.51

## COCCN1CCN(Cc2ccc(NC(=O)c3ccc(C)c(C#Cc4cnc(C(N)=O)n4C)c3)cc2C(F)(F)F)CC1
[1]
  pIC50: 8.32
[2]
  pIC50: 6.85
[3]
  pIC50: 9.19
[4]
  pIC50: 7.97
[5]
  pIC50: 5.62

## Cc1ccc(C(=O)Nc2ccc(CN3CCN(CC(=O)O)CC3)c(C(F)(F)F)c2)cc1C#Cc1cnc(C(N)=O)n1C
[1]
  pIC50: 8.37
[2]
  pIC50: 6.97
[3]
  pIC50: 8.12
[4]
  pIC50: 7.19
[5]
  pIC50: 5.00

## Cc1ccc(C(=O)Nc2ccc(CN3CCN(C)CC3)c(C(F)(F)F)c2)cc1C#Cc1cnc(N)s1
[1]
  pIC50: 7.54
[2]
  pIC50: 6.86
[3]
  pIC50: 8.55
[4]
  pIC50: 7.76
[5]
  pIC50: 5.90

## CC(=O)Nc1ncc(C#Cc2cc(C(=O)Nc3ccc(CN4CCN(C)CC4)c(C(F)(F)F)c3)ccc2C)s1
[1]
  pIC50: 7.92
[2]
  pIC50: 7.57
[3]
  pIC50: 9.17
[4]
  pIC50: 8.26
[5]
  pIC50: 7.01
